Earlier results as cited in patent US20210361600A1, “METHODS FOR INDUCING CHONDROGENESIS” (THE SCRIPPS RESEARCH INSTITUTE, priority 2017, published 2021).

How the values were obtained:
CBFβ = settings: previously demonstrated; cited from earlier work
FLNA FC-1 fragment = settings: previously validated with BKA affinity probe; cited from earlier work

In the case of `O=C(O)c1ccccc1C(=O)Nc1ccc(-c2ccccc2)cc1` [KGN, kartogenin], the “nuclear localization of CBFβ” value (CBFβ) is listed as “increase the nuclear localization of CBFβ” and the “binding to FC-1 fragment of FLNA” value (FLNA FC-1 fragment) is listed as “directly mediate the binding”.
